Experimental data reported in EP1202975B1, “SUBSTITUTED POLYCYCLIC ARYL AND HETEROARYL PYRAZINONES USEFUL FOR SELECTIVE INHIBITION OF THE COAGULATION CASCADE” (Pharmacia Corporation, priority 1999, dated 2000).
Where two headings read alike, the source gives them in different places.

Key:
TF-VIIa = molecular target: T1, TF-VIIa (Homo sapiens, UniProt P08709); assay: TF-VIIa Assay; assay type: biochemical
T1 construct: 2nM recombinant human factor VIIa; purchased American Diagnostica, Greenwich CT; host or cells: soluble TF made in house in E. coli

Human factor Xa = Human factor Xa (Homo sapiens, UniProt P00742)
[1] = read-out: IC50 or % Inhibition TF-VIIa (30 µM); cells given as a plain number (IC50)
[2] = cells given as a plain number (IC50); read-out: IC50 or % Inhibition TF-VIIa (30 µM)

T1 sequence (P08709 213-466 limits assumed): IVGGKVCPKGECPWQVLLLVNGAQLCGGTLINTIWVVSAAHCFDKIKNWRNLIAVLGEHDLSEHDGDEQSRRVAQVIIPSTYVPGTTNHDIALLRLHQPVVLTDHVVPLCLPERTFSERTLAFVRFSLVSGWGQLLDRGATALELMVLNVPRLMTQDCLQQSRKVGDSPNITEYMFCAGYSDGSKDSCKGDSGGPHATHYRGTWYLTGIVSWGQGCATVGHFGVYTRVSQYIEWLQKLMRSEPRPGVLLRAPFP
T1 sequence (P08709 61-212 limits assumed): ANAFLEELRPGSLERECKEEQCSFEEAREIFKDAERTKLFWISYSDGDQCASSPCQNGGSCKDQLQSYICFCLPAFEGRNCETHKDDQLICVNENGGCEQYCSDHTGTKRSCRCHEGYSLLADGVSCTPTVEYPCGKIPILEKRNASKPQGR
T1 sequence (P13726 33-251 partner limits assumed): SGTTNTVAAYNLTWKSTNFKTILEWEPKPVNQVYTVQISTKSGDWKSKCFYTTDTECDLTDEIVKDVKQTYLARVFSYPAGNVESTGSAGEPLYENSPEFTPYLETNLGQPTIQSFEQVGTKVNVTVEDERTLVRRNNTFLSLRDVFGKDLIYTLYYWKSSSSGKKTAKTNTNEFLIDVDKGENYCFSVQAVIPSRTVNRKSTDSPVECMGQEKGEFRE
Chain of Human factor Xa (P00742 235-488 limits assumed): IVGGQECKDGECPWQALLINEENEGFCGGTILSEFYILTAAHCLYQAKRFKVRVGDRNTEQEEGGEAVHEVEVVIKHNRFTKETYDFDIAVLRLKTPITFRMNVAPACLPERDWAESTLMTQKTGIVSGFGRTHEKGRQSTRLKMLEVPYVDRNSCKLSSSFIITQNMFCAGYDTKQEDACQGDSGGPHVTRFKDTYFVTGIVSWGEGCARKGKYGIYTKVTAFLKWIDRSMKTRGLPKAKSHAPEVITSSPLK
Chain of Human factor Xa (P00742 41-179 limits assumed): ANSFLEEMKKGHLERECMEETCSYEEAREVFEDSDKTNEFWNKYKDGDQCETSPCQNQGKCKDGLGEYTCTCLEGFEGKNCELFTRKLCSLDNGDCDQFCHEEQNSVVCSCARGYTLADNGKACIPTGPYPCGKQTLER

Compound | IC50 (TF-VIIa; [1]) [µM] | IC50 or % Inhibition Factor Xa (30 µM) (Human factor Xa) [%] | further results
COc1ccc(-c2c(Cl)nc(NCc3ccncc3)c(=O)n2CC(=O)NCCc2ccncc2)cc1 [Example E-0040] | – | – | % Inhibition TF-VIIa (100 µM) (TF-VIIa): 0%; % Inhibition Factor Xa (100 µM) (Human factor Xa): 0%
N=C(N)c1ccc(CNC(=O)Cn2c(-c3ccc4c(c3)OCO4)c(Cl)nc(NCc3ccncc3)c2=O)cc1 [1471-43] | 25.3 | 18 | –
Cc1cc(Cl)cc(Cl)c1CNc1nc(Cl)c(-c2ccccc2)n(CC(=O)NCc2ccc(C(=N)N)cc2)c1=O [1512-45] | – | 11 | IC50 or % Inhibition TF-VIIa (30 µM) (TF-VIIa): 27%
Cc1c(Cl)nc(NCc2ccccc2)c(=O)n1CC(=O)NCc1ccc(C(=N)N)cc1 [1471-1] | 8.17 | 10 | –
N=C(N)c1ccc(CNC(=O)Cn2c(-c3ccccc3)c(Cl)nc(NCc3cc(F)cc(F)c3)c2=O)cc1 [1512-39] | – | 4 | IC50 (TF-VIIa; [2]): 6 µM
N=C(N)c1ccc(CNC(=O)Cn2c(-c3ccc(-c4ccccc4)cc3)c(Cl)nc(NCc3ccncc3)c2=O)cc1 [1471-67] | – | 16 | IC50 or % Inhibition TF-VIIa (30 µM) (TF-VIIa): 12%
N=C(N)c1ccc(CNC(=O)Cn2c(-c3ccccc3)c(Cl)nc(NCc3ccncc3)c2=O)cc1 [1471-11] | 1.69 | 9 | –
N=C(N)c1ccc(CNC(=O)Cn2c(-c3ccc4c(c3)OCO4)c(Cl)nc(NCCc3ccncc3)c2=O)cc1 [1471-45] | 13.2 | 24 | –
N=C(N)c1ccc(CNC(=O)Cn2c(-c3c(Cl)cccc3Cl)c(Cl)nc(NCCc3cccc(Cl)c3)c2=O)cc1 [1517-24] | 1.8 | 0 | –
COc1ccc(-c2c(Cl)nc(NCCc3ccc(Cl)cc3)c(=O)n2CC(=O)NCc2ccc(C(=N)N)cc2)cc1 [1471-34] | 17.5 | 24 | –
N=C(N)c1ccc(CNC(=O)Cn2c(-c3ccccc3)c(Cl)nc(NCc3cc(F)c(F)c(F)c3)c2=O)cc1 [1512-32] | 21.9 | 5 | –
COc1ccc(CCNc2nc(Cl)c(-c3ccccc3)n(CC(=O)NCc3ccc(C(=N)N)cc3)c2=O)cc1OC [1512-05] | 16.7 | 10 | –
CCNc1nc(Cl)c(-c2cccc(N)c2)n(CC(=O)NCc2ccc(C(=N)N)cc2F)c1=O [1543-31] | – | 8 | IC50 (TF-VIIa; read-out: IC50 or % Inhibition TF-VIIa (30 µM); cells without % sign: IC50): 0.04 µM
Cc1c(Cl)nc(NCCc2cccc(Cl)c2)c(=O)n1CC(=O)NCCc1ccncc1 [Example E-0003] | – | – | % Inhibition TF-VIIa (100 µM) (TF-VIIa): 0%; % Inhibition Factor Xa (100 µM) (Human factor Xa): 0%
O=C(Cn1c(Cc2ccccc2)c(Cl)nc(NCCc2ccc(Cl)cc2)c1=O)NCCc1ccncc1 [Example E-0060] | – | – | % Inhibition TF-VIIa (100 µM) (TF-VIIa): 0%; % Inhibition Factor Xa (100 µM) (Human factor Xa): 0%
O=C(Cn1c(-c2ccc(-c3ccccc3)cc2)c(Cl)nc(NCc2ccncc2)c1=O)NCCc1ccncc1 [Example E-0056] | – | – | % Inhibition TF-VIIa (100 µM) (TF-VIIa): 0%; % Inhibition Factor Xa (100 µM) (Human factor Xa): 0%
O=C(Cn1c(Cc2ccccc2)c(Cl)nc(NCCc2cccc(Cl)c2)c1=O)NCCc1ccncc1 [Example E-0059] | – | – | % Inhibition TF-VIIa (100 µM) (TF-VIIa): 0%; % Inhibition Factor Xa (100 µM) (Human factor Xa): 0%
N=C(N)c1ccc(CNC(=O)Cn2c(-c3ccccc3)c(Cl)nc(NC3CCCCC3)c2=O)cc1 [1517-25] | – | 0 | IC50 (TF-VIIa; [2]): 1.4 µM
N=C(N)c1ccc(CNC(=O)Cn2c(-c3ccc4c(c3)OCO4)c(Cl)nc(NCCc3cccnc3)c2=O)cc1 [1471-48] | 15.7 | 17 | –
N=C(N)c1ccc(CNC(=O)Cn2c(-c3ccccc3)c(Cl)nc(NCCCCc3ccccc3)c2=O)cc1 [1507-43] | – | 21 | IC50 (TF-VIIa; [2]): 4.1 µM
O=C(Cn1c(-c2ccc3c(c2)OCO3)c(Cl)nc(NCCc2ccncc2)c1=O)NCCc1ccncc1 [Example E-0046] | – | – | % Inhibition TF-VIIa (100 µM) (TF-VIIa): 0%; % Inhibition Factor Xa (100 µM) (Human factor Xa): 0%
N=C(N)c1ccc(CNC(=O)Cn2c(-c3ccsc3)c(Cl)nc(NCc3ccccc3)c2=O)cc1 [1517-01] | 1.2 | 0 | –
N=C(N)c1ccc(CNC(=O)Cn2c(-c3ccccc3)c(Cl)nc(NCc3ccccc3Cl)c2=O)cc1 [1507-03] | 3.6 | 21 | –
COc1ccc(-c2c(Cl)nc(NCc3ccccc3)c(=O)n2CC(=O)NCCc2ccncc2)cc1 [Example E-0033] | – | – | % Inhibition TF-VIIa (100 µM) (TF-VIIa): 0%; % Inhibition Factor Xa (100 µM) (Human factor Xa): 0%

Compound | IC50 (TF-VIIa; [1]) [µM] | IC50 or % Inhibition Factor Xa (30 µM) (Human factor Xa) [%] | further results
Cc1cccc(Cl)c1CNc1nc(Cl)c(-c2ccccc2)n(CC(=O)NCc2ccc(C(=N)N)cc2)c1=O [1512-31] | – | 14 | IC50 or % Inhibition TF-VIIa (30 µM) (TF-VIIa): 43%
COc1ccc(-c2c(Cl)nc(NCCc3ccncc3)c(=O)n2CC(=O)NCCc2ccncc2)cc1 [Example E-0038] | – | – | % Inhibition TF-VIIa (100 µM) (TF-VIIa): 0%; % Inhibition Factor Xa (100 µM) (Human factor Xa): 0%
COc1ccc(-c2c(Cl)nc(NCCc3ccncc3)c(=O)n2CC(=O)NCc2ccc(C(=N)N)cc2)cc1 [1471-37] | – | 7 | IC50 or % Inhibition TF-VIIa (30 µM) (TF-VIIa): 39%
N=C(N)c1ccc(CNC(=O)Cn2c(-c3ccsc3)c(Cl)nc(NC3CCC3)c2=O)cc1 [1517-07] | 0.4 | 0 | –
N=C(N)c1ccc(CNC(=O)Cn2c(-c3ccccc3)c(Cl)nc(NCc3cc(F)ccc3F)c2=O)cc1 [1512-36] | – | 9 | IC50 (TF-VIIa; [2]): 3.8 µM
Cc1c(Cl)nc(NCCc2ccccc2)c(=O)n1CC(=O)NCc1ccc(C(=N)N)cc1 [1471-7] | – | 4 | IC50 (TF-VIIa; [2]): 4.28 µM
N=C(N)c1ccc(CNC(=O)Cn2c(-c3ccccc3)c(Cl)nc(NCCc3cccc(C(F)(F)F)c3)c2=O)cc1 [1512-41] | – | 4 | IC50 (TF-VIIa; [2]): 30 µM
Cc1c(Cl)nc(NCc2ccncc2)c(=O)n1CC(=O)NCc1ccc(C(=N)N)cc1 [1471-3] | 13.6 | 0 | –
N=C(N)c1ccc(CNC(=O)Cn2c(-c3ccc(Cl)cc3)c(Cl)nc(NCc3ccncc3)c2=O)cc1 [1471-19] | – | 26 | IC50 or % Inhibition TF-VIIa (30 µM) (TF-VIIa): 33%
CN(C)CCNc1nc(Cl)c(-c2cccc(N)c2)n(CC(=O)NCc2ccc(C(=N)N)cc2)c1=O [1543-09] | – | 12 | IC50 (TF-VIIa; cells without % sign: IC50; read-out: IC50 or % Inhibition TF-VIIa (30 µM)): 0.69 µM
N=C(N)c1ccc(CNC(=O)Cn2c(-c3ccc(Cl)cc3)c(Cl)nc(NCCc3ccc(Cl)cc3)c2=O)cc1 [1471-18] | 11.2 | 26 | –
O=C(Cn1c(Cc2ccccc2)c(Cl)nc(NCCc2cccnc2)c1=O)NCCc1ccncc1 [Example E-0061] | – | – | % Inhibition TF-VIIa (100 µM) (TF-VIIa): 0%; % Inhibition Factor Xa (100 µM) (Human factor Xa): 0%
Cc1c(Cl)nc(NCCc2ccc(Cl)cc2)c(=O)n1CC(=O)NCc1ccc(C(=N)N)cc1 [1471-2] | 3.62 | 10 | –
O=C(Cn1c(CCc2ccccc2)c(Cl)nc(NCc2ccncc2)c1=O)NCCc1ccncc1 [Example E-0072] | – | – | % Inhibition TF-VIIa (100 µM) (TF-VIIa): 0%; % Inhibition Factor Xa (100 µM) (Human factor Xa): 0%
O=C(Cn1c(-c2ccccc2)c(Cl)nc(NCc2ccccc2)c1=O)NCCc1ccncc1 [Example E-0009] | – | – | % Inhibition TF-VIIa (100 µM) (TF-VIIa): 0%; % Inhibition Factor Xa (100 µM) (Human factor Xa): 1%
O=C(Cn1c(-c2ccccc2)c(Cl)nc(NCCc2cccnc2)c1=O)NCCc1ccncc1 [Example E-0013] | – | – | % Inhibition TF-VIIa (100 µM) (TF-VIIa): 0%; % Inhibition Factor Xa (100 µM) (Human factor Xa): 0%
N=C(N)c1ccc(CNC(=O)Cn2c(-c3ccccc3)c(Cl)nc(NC(c3ccccc3)c3ccccc3)c2=O)cc1 [1507-35] | 19.9 | 28 | –
N=C(N)c1ccc(CNC(=O)Cn2c(-c3ccc(Cl)cc3)c(Cl)nc(NCCc3ccccc3)c2=O)cc1 [1471-23] | – | 36 | IC50 (TF-VIIa; [2]): 8.88 µM
O=C(Cn1c(CCc2ccccc2)c(Cl)nc(NCCc2ccncc2)c1=O)NCCc1ccncc1 [Example E-0070] | – | – | % Inhibition TF-VIIa (100 µM) (TF-VIIa): 0%; % Inhibition Factor Xa (100 µM) (Human factor Xa): 0%
CCc1c(Cl)nc(NCCc2cccnc2)c(=O)n1CC(=O)NCc1ccc(C(=N)N)cc1 [1471-64] | 3.02 | 2 | –
C[C@@H](C(=O)NCc1ccc(C(=N)N)cc1)n1c(-c2ccccc2)c(Cl)nc(NCc2ccccc2)c1=O [1517-03] | 9 | 0 | –
COC(=O)c1cccc(-c2c(Cl)nc(NC(C)C)c(=O)n2CC(=O)NCc2ccc(C(=N)N)cc2)c1 [Example 64] | – | 19 | IC50 (TF-VIIa; [2]): 0.78 µM
COc1ccc(-c2c(Cl)nc(NCCc3ccc(Cl)cc3)c(=O)n2CC(=O)NCCc2cccnc2)cc1 [Example E-0107] | – | – | % Inhibition TF-VIIa (100 µM) (TF-VIIa): 4%; % Inhibition Factor Xa (100 µM) (Human factor Xa): 6%
